Test results from US10287274B2, “5-hydroxytryptamine receptor 7 activity modulators and their method of use” (TEMPLE UNIVERSITY OF THE COMMONWEALTH SYSTEM OF HIGHER …, priority 2013, dated 2019).

Target: Serotonin 5HT7 receptors (Homo sapiens (Human), UniProt P34969)
Assay: Radiolabel Binding Studies for Serotonin 5HT7 receptors
Conditions: read-out: 5-HT7 % inhib @ 10 uM
Protocol: Radiolabel Binding Studies for Serotonin 5HT7 Receptors, Method 1:
Eleven dilutions (5× assay concentration) of the compound of the disclosure and chlorpromazine are prepared in the Assay Buffer by serial dilution to yield final corresponding assay concentrations ranging from 10 pM to 10 μM.
A stock concentration of 5 nM [^3H]LSD (lysergic acid diethyl amide) is prepared in 50 mM Tris-HCl, 10 mM MgCl2, 1 mM EDTA, pH 7.4 (Assay Buffer). Aliquots (50 μl) of radioligand are dispensed into the wells of a 96-well plate containing 100 μl of Assay Buffer. Duplicate 50-μl aliquots of the compound of the disclosure test and chlorpromazine positive control reference compound serial dilutions are added.
Membrane fractions of cells expressing recombinant 5HT7 receptors (50 μL) are dispensed into each well. […]
The 250-μl reactions are incubated at room temperature for 1.5 hours, then harvested by rapid filtration onto 0.3% polyethyleneimine-treated, 96-well filter mats using a 96-well Filtermate harvester. […] The filter mats are dried, then scintillant is added to the filters and the radioactivity retained on the filters is counted in a Microbeta scintillation counter. […]

Sequence of Serotonin 5HT7 receptors (P34969 whole entry): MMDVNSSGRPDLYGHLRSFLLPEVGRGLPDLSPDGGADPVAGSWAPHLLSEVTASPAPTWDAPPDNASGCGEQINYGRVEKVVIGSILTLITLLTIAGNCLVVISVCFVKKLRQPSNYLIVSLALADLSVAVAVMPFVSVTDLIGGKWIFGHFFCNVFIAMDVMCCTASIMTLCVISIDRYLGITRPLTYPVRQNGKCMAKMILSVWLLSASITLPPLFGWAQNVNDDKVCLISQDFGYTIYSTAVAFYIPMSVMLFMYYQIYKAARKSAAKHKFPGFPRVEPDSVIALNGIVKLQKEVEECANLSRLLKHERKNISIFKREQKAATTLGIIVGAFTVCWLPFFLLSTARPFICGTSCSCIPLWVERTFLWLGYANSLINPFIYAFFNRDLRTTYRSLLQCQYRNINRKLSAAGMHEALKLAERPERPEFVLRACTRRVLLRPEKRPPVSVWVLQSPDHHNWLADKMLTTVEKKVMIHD

For `CC1(C)CC(CCN2CCN(c3ccccc3C#N)CC2)OC1=O` (stereo not shown) [Entry 19], which inhibition at 10 µM is on record?
Its inhibition at 10 µM is 85.7%.
